Test results: patent US9428448B2, “Compounds and methods of treating obesity” (Yissum Research Development Company of the Hebrew …, priority 2008, dated 2016)
Blank lines part the entries; values can stand above or below the compound they belong to.

Tests used:
[1] = test system: 2-AG levels in the hypothalamus; test: 2-AG levels in the hypothalamus (TLC followed by GC-MS); assay type: in vivo, mice; conditions: treated group vs. control, 1 mg/kg i.p., p<0.05 (FIG. 5)
Description: (§1) Mice were decapitated and their brains rapidly removed, and the hypothalamus and hippocampus were dissected. 2-AG levels in the hypothalamus were evaluated using TLC followed by GC-MS analysis.

[2] = total food consumption in mice; assay type: in vivo, Sabra mice; conditions: 1 mg/kg i.p.; for effect on total food consumption in the second week (comparison study): second week during administration, vs control (FIG. 9B, Example 3)
Description: (§2) Young female Sabra mice were assigned at random to different groups (untreated controls or treated with 1 mg/kg Compound X Intra Peritoneally) of 10 mice per cage. The weights of the animals were similar at the beginning of the experiment. All cages contained wood-chip bedding and were placed in a temperature-controlled room at 22° C., on a 12-h light/dark cycle (lights on at 07.00 h). The mice had free access to water 24 h a day. The mice were fed ad-libitum, body weight was measured twice a week during the experiment and food consumption was calculated.
Total food consumption was evaluated in the first week before treatment and at the second week during the treatment (FIGS. 2A and 2B).
(§3) This study compared the effects of Compound X and Rimonabant. Female Sabra mice (32 g average weight) were divided randomly to 3 experimental groups: (a) control; (b) Compound X; and (3) Rimonabant, 10 mice in each group. Food consumption and weight were evaluated during the experiment. During the second week, mice were evaluated for cognitive function during 5 days using the eight arm maze. 15 min before evaluation mice were injected i.p. with either saline or 1 mg/kg Compound X or Rimonabant (days 8-12).
Total food consumption was evaluated in the first week before treatment and at the second week during the treatment (FIGS. 9A and 9B, respectively).

[3] = body weight of mice during treatment; assay type: in vivo, Sabra mice; conditions: for effect on weight vs control (comparison study): 1 mg/kg i.p. days 8-12, female Sabra mice (FIG. 8, Example 3)
Description: as §2
Compound X may also be given orally. Compound X (gavage) or saline (control) were administered to Sabra mice by oral gavage.
as §3

[4] = neurological score by the NSS method; assay type: in vivo, Sabra mice; conditions: 1 mg/kg i.p., day 10 (FIG. 11, Example 3)
Description: as §3
Neurological score was evaluated by the NSS method Neurological function was assessed by a 10 point scale based on reflexes and task performance 37: Exit from a circle 1 meter in diameter in less than 1 minute, seeking, walking a straight line, startle reflex, grasping reflex, righting reflex, placing reflex, corneal reflex, maintaining balance on a beam 3, 2 and 1 cm in width, climbing onto a square and a round pole. For each task failed or abnormal reflex reaction a score of 1 was assigned. Thus, a higher score indicates poorer neurological function on day 10.

[5] = test system: norepinephrine (NE) levels; test: norepinephrine (NE) levels in hippocampus and hypothalamus (HPLC-ECD); assay type: in vivo, mice; conditions: 1 mg/kg i.p.
Description: as §1
(§4) Serotonin (5-HT) and norepinephrine (NE) were valuated in the hypothalamus (serotonin and norepinephrine) and hippocampus (norepinephrine), using HPLC-ECD.

[6] = test system: ALT levels; test: ALT levels in mice; assay type: in vivo, Sabra mice; conditions: 1 mg/kg i.p., mice sacrificed 71 days after treatment (FIG. 13, Example 3)
Description: as §3
Mice were sacrificed 71 days after treatment, and ALT levels were measured.

[7] = locomotor activity in an open field (activity index); assay type: in vivo, Sabra mice; conditions: 1 mg/kg i.p.; for effect on activity (mean number of crossings per minute; comparison study): open field (FIG. 10, Example 3)
Description: Activity of the mice was assessed in an open field (20×30 cm) divided into 12 squares of equal size. Two mice were observed simultaneously for 5 minutes. The activity test was performed on day 11 of the experiment. Locomotor activity was recorded by counting the number of crossings by the mice at one minute intervals. The results, depicted in FIG. 4, are presented as the mean number of crossings per minute.
Activity of the mice was assessed in an open field (20×30 cm) divided into 12 squares of equal size, as detailed in Example 2. The results, depicted in FIG. 10, are presented as the mean number of crossings per minute.

[8] = test system: Serotonin (5-HT) levels in the hypothalamus; test: serotonin (5-HT) levels in the hypothalamus (HPLC-ECD); assay type: in vivo, mice; conditions: treated group vs. control, 1 mg/kg i.p., p<0.05 (FIG. 6)
Description: as §1, §4

[9] = cognitive function evaluated by an 8 arm maze; assay type: in vivo, Sabra mice; conditions: for effect on cognitive function (8 arm maze; comparison study): 1 mg/kg, second week of treatment (FIG. 12, Example 3)
Description: Mice were subjected to the treatment regimen outlined in Example 1, and during the second week of treatment their cognitive function was evaluated by an 8 arm maze on the second week of the experiment 15 minutes after injection. Two hours before the test, the mice were on a water deprivation schedule. At the end of each arm there was a drop of water as a reward. Each mouse was evaluated for its performance in the maze. The mice were observed until they made entries to all eight arms or until they completed 24 entries (whichever came first). The results, depicted in FIG. 3, were calculated as AUC (area under the curve) as follows: day2+day3+day4+day5−4(day1).
as §3
Mice were subjected to treatment with Compound X (1 mg/kg) or Rimonabant (1 mg/kg), and during the second week of treatment their cognitive function was evaluated by an 8 arm maze as described above in Example 2.

[10] = biological target: T1, PPAR-α (Homo sapiens, UniProt Q07869); conditions: reported by Giuseppe et al. 2006; read-out: EC50 for stimulating transcriptional activity of PPAR-α; cited from earlier work
T1 sequence (Q07869 1-468): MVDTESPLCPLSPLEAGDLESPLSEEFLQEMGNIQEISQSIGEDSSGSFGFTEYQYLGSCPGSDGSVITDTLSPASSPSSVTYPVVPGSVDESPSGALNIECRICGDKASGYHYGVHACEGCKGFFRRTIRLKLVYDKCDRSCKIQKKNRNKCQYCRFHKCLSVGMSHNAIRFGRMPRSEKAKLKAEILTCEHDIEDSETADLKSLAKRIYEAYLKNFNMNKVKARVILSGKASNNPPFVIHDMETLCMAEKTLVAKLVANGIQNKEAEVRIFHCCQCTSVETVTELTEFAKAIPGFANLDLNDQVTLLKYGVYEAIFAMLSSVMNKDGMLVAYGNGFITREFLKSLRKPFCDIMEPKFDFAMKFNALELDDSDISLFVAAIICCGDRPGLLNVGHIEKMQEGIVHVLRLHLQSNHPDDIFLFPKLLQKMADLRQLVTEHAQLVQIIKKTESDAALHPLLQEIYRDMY

effect on neurological score (NSS, 10 point scale; higher score = poorer function) [4]: did not change the neurological score
SMILES: CCCCCCCC/C=C\CCCCCCCC(=O)N[C@H](CO)C(C)C [Compound X, ((Z-Octadec)-9-enoic acid 1-hydroxymethyl-2-methyl-propyl)-amide]
effect on 2-AG levels in the hypothalamus [1]: significant decrease
decrease in food consumption ([2]; p<0.05 (Examples 1-2 conclusion)): 7%
effect on total food consumption in the second week (comparison study) [2]: decreased food consumption significantly
effect on total food consumption in the second week ([2]; second week during treatment, P<0.05 (FIG. 2B, Example 1)): significantly decreased food consumption
duration of the decrease in weight after administration ([3]; 1 mg/kg Intra Peritoneally, female Sabra mice (Example 1)): about 15 days
effect on weight vs control (comparison study) [3]: significant decrease in weight
continuation of the weight effect after re-administration on day 43 ([3]; administered again on day 43, female Sabra mice (Example 3)): 28 days
continuation of the weight effect without further administration ([3]; after 1 mg/kg i.p. days 8-12, female Sabra mice (Example 3)): 31 days
effect on body weight, oral gavage ([3]; oral gavage vs saline control, Sabra mice (FIG. 1B)): significantly decreasing the weight
effect on NE levels in the hippocampus ([5]; p<0.05 (FIG. 7A)): significantly increased
effect on NE levels in the hypothalamus ([5]; p<0.05 (FIG. 7B)): significantly increased
effect on ALT levels [6]: slightly increased ALT levels
effect on activity (mean number of crossings per minute) ([7]; day 11, open field, p<0.001 (FIG. 4, Example 2)): significant increase in the activity
effect on activity (mean number of crossings per minute; comparison study) [7]: significant increase in the activity
increased activity ([7]; p<0.001 (Examples 1-2 conclusion)): 36%
effect on serotonin levels in the hypothalamus [8]: increased significantly
improvement in cognitive function (8 arm maze) ([9]; 1 mg/kg i.p. (Examples 1-2 conclusion)): 400%
effect on cognitive function (8 arm maze, AUC) ([9]; 1 mg/kg i.p., second week, 15 minutes after injection (FIG. 3, Example 2)): improved significantly
effect on cognitive function (8 arm maze; comparison study) [9]: improved significantly

SMILES: CCCCCCCC/C=C\CCCCCCCC(=O)N[C@H](C)CO [KDS-5104, (Z)—(R)-9-octadecenamide, N-2(hydroxyethyl,1-methyl)]
EC50 [10]: 100 nM

effect on neurological score (NSS, 10 point scale; higher score = poorer function) [4]: tendency to increase it
SMILES: Cc1c(C(=O)NN2CCCCC2)nn(-c2ccc(Cl)cc2Cl)c1-c1ccc(Cl)cc1 [Rimonabant, reference compound]
effect on total food consumption in the second week (comparison study) [2]: no significant differences
effect on weight vs control (comparison study) [3]: no significant difference in weight loss
effect on ALT levels [6]: raised them significantly
effect on activity (mean number of crossings per minute; comparison study) [7]: significantly decreased activity
effect on cognitive function (8 arm maze; comparison study) [9]: did not significantly affect cognitive function
